# Laboratory results taken from PMC6972607, “L‐Fucose prevention of renal ischaemia/reperfusion injury in Mice” (The FASEB Journal, 2019).
# Biological target: T1, collectin-11 (CL-11, CL-K1) (Homo sapiens, UniProt Q9BWP8)
# T1 construct: gene COLEC11; recombinant homo-oligomer generated by expression of the CL-11 cDNA (isoform a)
# Assay: competition ELISA, rCL-11 binding to immobilised yeast invertase
# T1 sequence (Q9BWP8 26-271): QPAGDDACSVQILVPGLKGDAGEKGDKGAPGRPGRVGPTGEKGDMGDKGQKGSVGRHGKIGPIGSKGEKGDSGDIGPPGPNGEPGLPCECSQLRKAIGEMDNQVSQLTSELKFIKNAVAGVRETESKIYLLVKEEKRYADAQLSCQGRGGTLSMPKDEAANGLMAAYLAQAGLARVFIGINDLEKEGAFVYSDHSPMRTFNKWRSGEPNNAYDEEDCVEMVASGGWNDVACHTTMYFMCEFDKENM
row,IC50 [mM],SMILES
1,12.1,C[C@@H]1OC(O)[C@@H](O)[C@H](O)[C@@H]1O (stereo partly drawn) [L-fucose]
2,11.8,OC[C@H]1OC(O)[C@@H](O)[C@@H](O)[C@@H]1O (stereo partly drawn) [D-mannose]
